A word on the IC50: it is the concentration that gives 50% inhibition.

The target in data set [1] is T1, Nuclear receptor subfamily 1 group I member 2 (Homo sapiens, UniProt O75469).
T1 sequence (O75469 whole entry): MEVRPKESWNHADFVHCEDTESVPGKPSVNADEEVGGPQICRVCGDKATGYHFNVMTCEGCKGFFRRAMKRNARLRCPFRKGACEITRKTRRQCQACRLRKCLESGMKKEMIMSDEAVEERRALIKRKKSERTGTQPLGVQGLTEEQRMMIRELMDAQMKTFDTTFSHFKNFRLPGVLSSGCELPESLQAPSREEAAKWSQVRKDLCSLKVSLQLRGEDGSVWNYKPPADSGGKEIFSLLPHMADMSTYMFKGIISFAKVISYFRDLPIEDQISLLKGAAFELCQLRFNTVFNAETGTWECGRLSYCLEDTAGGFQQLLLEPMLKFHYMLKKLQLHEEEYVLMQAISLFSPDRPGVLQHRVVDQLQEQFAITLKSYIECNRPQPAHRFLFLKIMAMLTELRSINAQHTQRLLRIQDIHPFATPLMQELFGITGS
The data set is described as follows: Activation of GAL4-DBD fused human PXR LBD expressed in human HepG2 cells co-expressing GAL4-responsive UAS-driven firefly luciferase and renilla luciferase assessed as increase in luciferase activity at 1 to 20 uM incubated for 24 hrs by Dual-Glo luciferase assay relative to control. The class given is cell-based. Conditions: hepg2, 24 h, dose 1-20 µM.

For data set [2], the target named is T2, Cytochrome P450 2C8 (Homo sapiens, UniProt P10632).
T2 sequence (P10632 whole entry): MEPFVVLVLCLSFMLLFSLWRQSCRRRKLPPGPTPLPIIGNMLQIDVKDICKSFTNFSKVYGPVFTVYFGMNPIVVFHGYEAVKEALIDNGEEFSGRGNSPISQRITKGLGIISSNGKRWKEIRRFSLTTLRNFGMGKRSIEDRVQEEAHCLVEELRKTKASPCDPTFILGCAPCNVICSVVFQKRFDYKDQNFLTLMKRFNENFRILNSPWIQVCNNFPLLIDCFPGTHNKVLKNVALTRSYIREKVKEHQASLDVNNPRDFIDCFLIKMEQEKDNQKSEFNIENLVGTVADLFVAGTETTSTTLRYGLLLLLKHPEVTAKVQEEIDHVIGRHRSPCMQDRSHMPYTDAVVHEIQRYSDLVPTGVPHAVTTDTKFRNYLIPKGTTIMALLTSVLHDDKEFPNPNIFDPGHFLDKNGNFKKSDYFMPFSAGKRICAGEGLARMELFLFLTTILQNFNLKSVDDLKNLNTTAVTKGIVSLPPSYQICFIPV
In words: Induction of CYP2C8 activity in human HepaRG cells at 10 uM incubated for 96 hrs by liquid chromatography with tandem mass spectrometry-based substrate cocktail assay. The class given is ADME, cell-based.

The subject of data set [3] is Mycobacterium tuberculosis. In words: Antimicrobial activity in Mycobacterium tuberculosis H37Rv ATCC 27294 assessed as reduction in metabolic activity by measuring incorporation radioactively labeled [3H] uracil into live bacilli preincubated for 72 hrs followed by [3H] uracil addition and measured after 18 hrs by beta-counter analysis. In kind it is functional, organism-based. As to conditions: for Activity: time 90.0 hrs.

The test system of a further data set is Macrophage. The data set is described as follows: Cytotoxicity against human Primary macrophage cells assessed as reduction in cell viability at 2.5 to 75 uM incubated for 18 hrs by PrestoBlue reagent based fluorescence assay. In kind it is toxicity. As to conditions: dose 2.5-75 µM.
Another data set deals with Cytochrome P450 2C9 (Homo sapiens, UniProt P11712). The data set is described as follows: Induction of CYP2C9 activity in human HepaRG cells at 5 to 10 uM incubated for 96 hrs by liquid chromatography with tandem mass spectrometry-based substrate cocktail assay. In kind it is ADME, cell-based. Conditions: dose 5-10 µM.
Data set [4] deals with Mycobacterium tuberculosis. The data set is described as follows: Antimicrobial activity in Mycobacterium tuberculosis H37Rv ATCC 27294 infected in human Primary macrophage cells assessed as reduction in intracellular growth of bacteria incubated for 4 days by CFU assay. In kind it is functional, organism-based. As to conditions: H37Rv ATCC 27294, Primary macrophage, 96 h.

Data set [5] has as its target T1, Nuclear receptor subfamily 1 group I member 2. The data set is described as follows: Transactivation of human PXR in human HepG2 cells coexpressing firefly luciferase gene under control of CYP3A4 promoter and renilla luciferase assessed as increase in luciferase activity at 1 to 20 uM incubated for 48 hrs by Dual-Glo luciferase assay. As to conditions: hepg2, 48 h.

The target in a further data set is T3, Cytochrome P450 2B6 (Homo sapiens, UniProt P20813).
T3 sequence (P20813 whole entry): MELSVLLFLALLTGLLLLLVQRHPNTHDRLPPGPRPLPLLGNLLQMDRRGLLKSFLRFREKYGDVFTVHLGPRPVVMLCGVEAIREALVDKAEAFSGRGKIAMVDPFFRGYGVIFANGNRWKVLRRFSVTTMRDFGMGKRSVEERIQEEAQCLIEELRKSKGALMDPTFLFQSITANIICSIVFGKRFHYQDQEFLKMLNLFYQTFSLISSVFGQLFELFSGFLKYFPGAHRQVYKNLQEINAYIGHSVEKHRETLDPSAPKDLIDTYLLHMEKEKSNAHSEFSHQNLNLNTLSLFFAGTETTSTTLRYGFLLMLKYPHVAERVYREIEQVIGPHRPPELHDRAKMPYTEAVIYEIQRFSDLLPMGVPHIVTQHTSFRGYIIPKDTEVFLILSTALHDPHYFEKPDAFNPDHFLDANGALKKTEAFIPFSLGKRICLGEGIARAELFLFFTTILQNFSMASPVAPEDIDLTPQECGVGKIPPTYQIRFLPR
The data set is described as follows: Induction of CYP2B6 activity in human HepaRG cells at 5 to 10 uM incubated for 96 hrs by liquid chromatography with tandem mass spectrometry-based substrate cocktail assay. The class given is ADME, cell-based. Conditions: dose 5-10 µM.

The subject of data set [6] is HepG2. The data set is described as follows: Cytotoxicity against human HepG2 cells assessed as reduction in cell viability at 10 to 20 uM incubated for 48 hrs by WST-1 assay. The class given is toxicity, cell-based. Conditions: hepg2, 48 h, dose 10-20 µM.
Data set [7] deals with HepG2. In words: Cytotoxicity against human HepG2 cells assessed as fold reduction in cell viability upto 20 uM incubated for 96 hrs by alamarBlue Cell Viability assay relative to control. In kind it is toxicity, cell-based. As to conditions: hepg2, 96 h.
The target in the next data set is T4, Cytochrome P450 1A2 (Homo sapiens, UniProt P05177).
T4 sequence (P05177 whole entry): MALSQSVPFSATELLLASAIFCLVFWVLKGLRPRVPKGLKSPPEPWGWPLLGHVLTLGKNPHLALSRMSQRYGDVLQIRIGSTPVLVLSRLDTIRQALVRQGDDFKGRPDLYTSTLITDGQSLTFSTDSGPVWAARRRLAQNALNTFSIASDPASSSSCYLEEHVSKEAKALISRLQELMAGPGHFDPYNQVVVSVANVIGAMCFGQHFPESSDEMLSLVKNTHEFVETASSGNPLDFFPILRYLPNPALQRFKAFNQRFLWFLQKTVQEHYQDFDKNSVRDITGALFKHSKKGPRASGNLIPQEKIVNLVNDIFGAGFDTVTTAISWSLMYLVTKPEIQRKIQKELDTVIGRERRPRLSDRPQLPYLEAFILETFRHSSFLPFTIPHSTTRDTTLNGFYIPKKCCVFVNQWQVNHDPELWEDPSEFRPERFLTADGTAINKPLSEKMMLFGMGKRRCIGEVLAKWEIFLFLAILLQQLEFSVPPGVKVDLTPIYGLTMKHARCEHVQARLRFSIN
The data set is described as follows: Induction of CYP1A2 activity in human HepaRG cells at 5 to 10 uM incubated for 96 hrs by liquid chromatography with tandem mass spectrometry-based substrate cocktail assay. The class given is ADME, cell-based. Conditions: dose 5-10 µM.

Data set [8] is described as follows: Induction of CYP3A4 mRNA expression in human HepaRG cells at 1 to 20 uM incubated for 24 hrs by RT-qPCR analysis. On the technique in general: In qPCR the cycle at which signal appears reflects the starting amount.
The nature of data set [9]: Induction of CYP3A4 protein expression in human HepaRG cells at 1 to 20 uM incubated for 24 hrs by targeted mass spectrometry-based immunoassay.
For the next data set, the target named is Cytochrome P450 3A4 (Homo sapiens, UniProt P08684). The data set is described as follows: Induction of CYP3A4 activity in human HepaRG cells at 5 to 10 uM incubated for 96 hrs by liquid chromatography with tandem mass spectrometry-based substrate cocktail assay. As to conditions: dose 5-10 µM. The class given is ADME, cell-based.
For the next data set, the system named is A549. The data set is described as follows: Cytotoxicity against human A549 cells assessed as reduction in cell viability at 2.5 to 75 uM incubated for 48 hrs by resazurin reagent based fluorescence assay. In kind it is toxicity. As to conditions: a549, 48 h, dose 2.5-75 µM.
The target in a further data set is Cytochrome P450 2C19 (Homo sapiens, UniProt P33261). In words: Induction of CYP2C19 activity in human HepaRG cells at 5 to 10 uM incubated for 96 hrs by liquid chromatography with tandem mass spectrometry-based substrate cocktail assay. The class given is ADME, cell-based. Conditions: dose 5-10 µM.
Another data set has as its system PBMC. The data set is described as follows: Cytotoxicity against human PBMC cells assessed as reduction in cell viability at 2.5 to 75 uM incubated for 18 hrs by PrestoBlue reagent based fluorescence assay. In kind it is toxicity. As to conditions: dose 2.5-75 µM.
The target in data set [10] is T2, Cytochrome P450 2C8. In words: Induction of CYP2C8 activity in human HepaRG cells at 5 to 10 uM incubated for 96 hrs by liquid chromatography with tandem mass spectrometry-based substrate cocktail assay. In kind it is ADME, cell-based. Conditions: dose 5-10 µM.
For the next data set, the system named is HepaRG. The data set is described as follows: Cytotoxicity against human HepaRG cells assessed as reduction in cell viability at 60 uM incubated for 24 hrs by WST-1 assay. The class given is toxicity, cell-based.
Data set [11] concerns Mycobacterium tuberculosis. In words: Antimicrobial activity in Mycobacterium tuberculosis expressing mCherry infected in human Primary macrophage cells assessed as reduction in number of intracellular bacilli at 7.5 uM by DAPI staining based Confocal laser scanning microscopy. The class given is functional, organism-based.

The source made the active and inactive calls. The rule behind the calls is not given here. Where only a bound is given, the exact number is not on record here.

Sequence of Cytochrome P450 2C19 (P33261 whole entry): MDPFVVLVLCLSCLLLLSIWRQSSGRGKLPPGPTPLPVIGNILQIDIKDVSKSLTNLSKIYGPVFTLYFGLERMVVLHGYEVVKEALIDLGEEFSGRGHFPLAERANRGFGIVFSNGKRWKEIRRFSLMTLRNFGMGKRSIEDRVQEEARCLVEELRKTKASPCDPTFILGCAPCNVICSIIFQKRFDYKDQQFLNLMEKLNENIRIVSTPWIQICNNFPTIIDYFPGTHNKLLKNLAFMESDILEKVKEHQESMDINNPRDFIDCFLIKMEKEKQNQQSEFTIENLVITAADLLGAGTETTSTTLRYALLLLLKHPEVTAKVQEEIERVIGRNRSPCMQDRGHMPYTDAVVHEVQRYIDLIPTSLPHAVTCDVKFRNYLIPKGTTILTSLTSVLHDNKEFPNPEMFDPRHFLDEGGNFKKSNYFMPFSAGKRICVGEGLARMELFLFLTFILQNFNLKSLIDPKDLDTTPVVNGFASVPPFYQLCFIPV
Sequence of Cytochrome P450 3A4 (P08684 whole entry): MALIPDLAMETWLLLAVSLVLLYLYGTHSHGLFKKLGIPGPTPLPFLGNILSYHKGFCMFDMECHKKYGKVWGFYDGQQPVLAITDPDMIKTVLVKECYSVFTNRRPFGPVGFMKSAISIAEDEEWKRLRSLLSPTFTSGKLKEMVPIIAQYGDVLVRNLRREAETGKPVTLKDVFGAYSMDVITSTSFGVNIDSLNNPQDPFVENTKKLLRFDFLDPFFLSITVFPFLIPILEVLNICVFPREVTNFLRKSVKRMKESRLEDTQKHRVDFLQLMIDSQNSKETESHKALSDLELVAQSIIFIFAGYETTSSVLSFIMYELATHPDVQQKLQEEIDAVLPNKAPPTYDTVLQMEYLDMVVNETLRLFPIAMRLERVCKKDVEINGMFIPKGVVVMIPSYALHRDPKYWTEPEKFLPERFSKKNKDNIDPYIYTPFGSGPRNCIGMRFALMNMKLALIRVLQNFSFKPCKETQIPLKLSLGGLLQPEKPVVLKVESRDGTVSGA
Sequence of Cytochrome P450 2C9 (P11712 whole entry): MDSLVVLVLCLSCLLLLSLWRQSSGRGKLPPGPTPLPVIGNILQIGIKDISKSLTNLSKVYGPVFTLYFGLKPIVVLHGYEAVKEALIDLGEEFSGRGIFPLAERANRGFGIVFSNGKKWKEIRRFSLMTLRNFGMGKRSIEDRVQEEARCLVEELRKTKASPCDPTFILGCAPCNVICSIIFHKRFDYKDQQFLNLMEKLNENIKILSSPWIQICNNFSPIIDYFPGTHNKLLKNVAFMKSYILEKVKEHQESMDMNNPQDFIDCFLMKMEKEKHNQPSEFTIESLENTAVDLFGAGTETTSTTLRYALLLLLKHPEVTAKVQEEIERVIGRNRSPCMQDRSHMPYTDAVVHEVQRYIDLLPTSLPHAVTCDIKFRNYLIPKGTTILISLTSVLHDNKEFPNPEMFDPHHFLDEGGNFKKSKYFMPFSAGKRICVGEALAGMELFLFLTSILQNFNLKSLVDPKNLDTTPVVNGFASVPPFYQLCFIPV

As for `CO[C@H]1/C=C/O[C@@]2(C)Oc3c(C)c(O)c4c(O)c(c(/C=N/N5CCN(C)CC5)c(O)c4c3C2=O)NC(=O)/C(C)=C\C=C\[C@H](C)[C@H](O)[C@@H](C)[C@@H](O)[C@@H](C)[C@H](OC(C)=O)[C@@H]1C` [RIFAMPIN], the Activity entry in [1] was “Active”; at Cytochrome P450 2C8 [2] it was “Not Active”.

For `C=CC[C@@]12C(=O)C(C(=O)c3ccccc3)=C(O)[C@@](Cc3ccccc3)(C[C@H](Cc3ccccc3)C1(C)C)C2=O`, the outcome in data set [3] was inactive.

Turning to `CC(C)=CC[C@H]1C[C@@]2(CC=C(C)C)C(=O)[C@](CC=C(C)C)(C(=O)C(C(=O)C(C)C)=C2O)C1(C)C`, the outcome in [3] was inactive.

Turning to `C=CC[C@@]12C[C@H](CC=C(C)C)C(C)(C)[C@@](CC=C)(C(=O)C(C(C)=O)=C1[O-])C2=O.[Na+]`, the Activity result is on record as “Non-Toxic” in the data set with Macrophage; “Not Active” at Cytochrome P450 2C9; “Dose-Dependent Effect” in data set [5]; “Not Active” at Cytochrome P450 2B6; “Toxic” in the data set on HepG2 [6]; “Not Active” at Cytochrome P450 1A2. Further, the Activity entry in data set [8] is “Not Active”; in data set [9], “Not Active”; at Cytochrome P450 3A4 it was “Not Active”; in the data set with A549, “Non-Toxic”; at Cytochrome P450 2C19, “Not Active”; with PBMC, “Non-Toxic”. Moreover, the Activity result is given as “Not Active” at Cytochrome P450 2C8 [10], “Dose-Dependent Effect” in data set [1] and less than 80% in the data set on HepaRG. In addition, the IC50 in data set [4] was 6.8 µM; in [3], 38.8 µM. Moreover, in the data set on HepG2 [7], the “fold change (FC)” value came out at 5. Besides, the result in [3] and in data set [11] was Active.

Take `CC(=O)C1=C(O)[C@@]2(CC=C(C)C)C[C@H](CC=C(C)C)C(C)(C)[C@@](CC=C(C)C)(C1=O)C2=O`: in [3], the outcome was inactive.

On to `C=CC[C@@]12C[C@H](CC=C(C)C)C(C)(C)[C@@](CC=C)(C(=O)C(C(=O)c3ccccc3)=C1O)C2=O`, for which, in data set [3], the result was inactive.

In the case of `C=CC[C@@]12C(=O)C(C(=O)c3ccccc3)=C(O)[C@@](Cc3ccccc3)(C[C@H](CC=C(C)C)C1(C)C)C2=O`, the result in [3] was inactive.

(Values after ChEMBL document CHEMBL5390228, “Unnatural Endotype B PPAPs as Novel Compounds with Activity against Mycobacterium tuberculosis” (J Med Chem, 2023).)
